Source: patent US20240400555A1 (Initial Therapeutics, Inc., priority 2023, published 2024)

Test system: MV-4-11 cells
Experiment: Cell Viability Assay in MV-4-11 Cells
Type: cell-based
Details: Homo sapiens, MV4-11, 72 h
Procedure, shortened: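 Luminescent ATP read-out (CellTiter-Glo) after 72 h compound treatment of MV-4-11 leukaemia cells (7,000 per well, IMDM plus 10% FBS). Values expressed relative to DMSO control and derived by four-parameter non-linear regression.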

Row | SMILES | IC50 [nM]
1 | CC(C)NC(=O)c1ccc2c(N(C(=O)c3ccc(-n4nnc5cccnc54)cc3F)[C@@H]3CCCNC3)nccc2c1 [Example 372, (R)-1-(4-(3H-[1,2,3]triazolo[4,5-b]pyridin-3-yl)-2-fluoro-N-(piperidin-3-yl)benzamido)-N-isopropylisoquinoline-6-carboxamide] | 100

Same assay, conditions: Homo sapiens, MV4-11, 72 h, MV-4-11 cells, 72 h, Cell-Titer Glo; read-out: IC50

Row | SMILES | IC50 [nM]
2 | COc1ccc2c(N(C(=O)c3ccc(-c4nnc(C)s4)cc3)[C@@H]3CCCNC3)nccc2c1F [Example 868, N-(5-fluoro-6-methoxy-1-isoquinolyl)-4-(5-methyl-1,3,4-thiadiazol-2-yl)-N-[(3R)-3-piperidyl]benzamide] | 760
3 | Cc1cc(F)cc2ccnc(N(C(=O)c3ccc(-c4cn(C)nn4)cn3)[C@@H]3CCCNC3)c12 [Example 785, (R)—N-(6-fluoro-8-methylisoquinolin-1-yl)-5-(1-methyl-1H-1,2,3-triazol-4-yl)-N-(piperidin-3-yl)picolinamide] | 230
4 | Cc1cc(C2CCN(C(=O)N(c3nccc4c(F)ccc(C)c34)[C@@H]3CCCNC3)CC2)on1 [Example 659, (R)—N-(5-fluoro-8-methylisoquinolin-1-yl)-4-(3-methylisoxazol-5-yl)-N-(piperidin-3-yl)piperidine-1-carboxamide] | 510
5 | Nc1noc2ccc(-c3cc4c(N(C(=O)c5ccc(-n6nnc7cccnc76)cc5F)[C@@H]5CCCNC5)nccc4s3)cc12 [Example 420, N-[2-(3-amino-1,2-benzoxazol-5-yl)thieno[3,2-c]pyridin-4-yl]-2-fluoro-N-[(3R)-3-piperidyl]-4-(triazolo[4,5-b]pyridin-3-yl)benzamide] | 330
6 | COCCn1cc(-c2ccc(C(=O)N(c3nccc4scc(C)c34)[C@@H]3CCCNC3)cn2)nn1 [Example 638, (R)-6-(1-(2-methoxyethyl)-1H-1,2,3-triazol-4-yl)-N-(3-methylthieno[3,2-c]pyridin-4-yl)-N-(piperidin-3-yl)nicotinamide] | 47
7 | Cc1nnc(-c2ccc(C(=O)N(c3nccc4sc(-c5ccncc5)cc34)[C@@H]3CCCNC3)c(F)c2)s1 [Example 593, 2-fluoro-4-(5-methyl-1,3,4-thiadiazol-2-yl)-N-[(3R)-3-piperidyl]-N-[2-(4-pyridyl)thieno[3,2-c]pyridin-4-yl]benzamide] | 780
8 | NC(=O)c1ccc(-c2cc3c(N(C(=O)c4ccc(-n5nnc6cccnc65)cc4F)[C@@H]4CCCNC4)nccc3s2)cc1F [Example 567, 2-fluoro-4-[4-[[2-fluoro-4-(triazolo[4,5-b]pyridin-3-yl)benzoyl]-[(3R)-3-piperidyl]amino]thieno[3,2-c]pyridin-2-yl]benzamide] | 230
9 | Cn1cc(-c2ccc(C(=O)N(c3nccc4sc(Br)cc34)[C@@H]3CCCNC3)cc2O)cn1 [Example 475, N-(2-bromothieno[3,2-c]pyridin-4-yl)-3-hydroxy-4-(1-methylpyrazol-4-yl)-N-[(3R)-3-piperidyl] benzamide] | 4600
10 | Cn1ccc(-c2cc3c(N(C(=O)c4ccc(-n5nnc6cccnc65)cc4F)[C@@H]4CCCNC4)nccc3s2)n1 [Example 438, 2-fluoro-N-[2-(1-methylpyrazol-3-yl)thieno[3,2-c]pyridin-4-yl]-N-[(3R)-3-piperidyl]-4-(triazolo[4,5-b]pyridin-3-yl)benzamide] | 220
11 | Cc1cc(F)cc2ccnc(N(C(=O)c3ccc(-c4cn(C)nn4)cc3F)[C@H]3CCCNC3)c12 [Example 620, 2-fluoro-N-(6-fluoro-8-methyl-1-isoquinolyl)-4-(1-methyltriazol-4-yl)-N-[(3S)-3-piperidyl]benzamide] | > 5900
12 | Cc1cccc2ccnc(N(C(=O)c3ccc(Nc4nccc(-n5ccnc5)n4)cc3F)[C@@H]3CCCNC3)c12 [Example 724, (R)-4-((4-(1H-imidazol-1-yl)pyrimidin-2-yl)amino)-2-fluoro-N-(8-methylisoquinolin-1-yl)-N-(piperidin-3-yl)benzamide] | 56
13 | COCc1c(-c2ccc(C(=O)N(c3nccc4cc(Cl)cc(C)c34)[C@@H]3CCCNC3)c(F)c2)nnn1C [Example 637, (R)—N-(6-chloro-8-methylisoquinolin-1-yl)-2-fluoro-4-(5-(methoxymethyl)-1-methyl-1H-1,2,3-triazol-4-yl)-N-(piperidin-3-yl)benzamide] | 250
14 | Cc1nnc(-c2ccc(C(=O)N(c3nccc4c(F)ccc(C)c34)[C@@H]3CCCNC3)c(F)c2)o1 [Example 660, (R)-2-fluoro-N-(5-fluoro-8-methylisoquinolin-1-yl)-4-(5-methyl-1,3,4-oxadiazol-2-yl)-N-(piperidin-3-yl)benzamide] | 200
15 | Cc1cc(C2CCN(C(=O)N(c3nccc4cc(F)cc(C)c34)[C@@H]3CCCNC3)CC2)on1 [Example 658, (R)—N-(6-fluoro-8-methylisoquinolin-1-yl)-4-(3-methylisoxazol-5-yl)-N-(piperidin-3-yl)piperidine-1-carboxamide] | 610
16 | O=C(c1ccc(-n2nnc3cccnc32)cc1F)N(c1nccc2sc(C#Cc3ccncc3)cc12)[C@@H]1CCCNC1 [Example 411, 2-fluoro-N-[(3R)-3-piperidyl]-N-[2-[2-(4-pyridyl)ethynyl]thieno[3,2-c]pyridin-4-yl]-4-(triazolo[4,5-b]pyridin-3-yl)benzamide] | 390
17 | CCCN(C)c1ccnc(Nc2ccc(C(=O)N(c3nccc4cccc(C)c34)[C@@H]3CCCNC3)c(F)c2)n1 [Example 745, (R)-2-fluoro-4-((4-(methyl(propyl)amino)pyrimidin-2-yl)amino)-N-(8-methylisoquinolin-1-yl)-N-(piperidin-3-yl)benzamide] | 160
18 | Cn1cc(-c2ccc3c(N(C(=O)c4ccc(-c5cn(C)nn5)cc4F)[C@@H]4CCCNC4)nccc3c2)cn1 [Example 445, (R)-2-fluoro-4-(1-methyl-1H-1,2,3-triazol-4-yl)-N-(6-(1-methyl-1H-pyrazol-4-yl)isoquinolin-1-yl)-N-(piperidin-3-yl)benzamide] | 290
19 | Cc1nnc(-c2ccc(C(=O)N(c3nccc4cc(Cl)cc(C)c34)[C@@H]3CCCNC3)cc2)s1 [Example 755, (R)—N-(6-chloro-8-methylisoquinolin-1-yl)-4-(5-methyl-1,3,4-thiadiazol-2-yl)-N-(piperidin-3-yl)benzamide] | 87
20 | Cc1nnc(-c2ccc(C(=O)N(c3nccc4c(F)ccc(C)c34)[C@@H]3CCCNC3)c(F)c2)s1 [Example 760, (R)-2-fluoro-N-(5-fluoro-8-methylisoquinolin-1-yl)-4-(5-methyl-1,3,4-thiadiazol-2-yl)-N-(piperidin-3-yl)benzamide] | 160
21 | Cc1cccc2ccnc(N(C(=O)c3ccc(-c4cn(C)nc4N)cc3F)[C@@H]3CCCNC3)c12 [Example 391, 4-(3-amino-1-methyl-pyrazol-4-yl)-2-fluoro-N-(8-methyl-1-isoquinolyl)-N-[(3R)-3-piperidyl] benzamide] | > 10000
22 | O=C(c1ccc(-c2cnn3cccnc23)cc1)N(c1nccc2ccccc12)[C@@H]1CCCNC1 [Example 302, (R)—N-(isoquinolin-1-yl)-N-(piperidin-3-yl)-4-(pyrazolo[1,5-a]pyrimidin-3-yl)benzamide] | 480
23 | Cn1cc(-c2ccc(C(=O)N(c3nccc4cc(-c5ccccn5)ccc34)[C@@H]3CCCNC3)c(F)c2)nn1 [Example 581, (R)-2-fluoro-4-(1-methyl-1H-1,2,3-triazol-4-yl)-N-(piperidin-3-yl)-N-(6-(pyridin-2-yl)isoquinolin-1-yl)benzamide] | 340
